These results are taken from the OPERA property sets (Mansouri et al. 2018).

Broadly, the logP is the decadic logarithm of the partition coefficient of the neutral form, usually between octanol and water. A lower logP goes with a more hydrophilic compound.

With `O=C(O)CSC1=NS(=O)(=O)c2ccc(Cl)cc2N1`, the logP is 0.82.
`O=C(O)CCSC1=NS(=O)(=O)c2cc(Cl)ccc2N1` showed a logP of 1.43.
Compound `O=C(O)CCC1=NS(=O)(=O)c2ccc(Cl)cc2N1` showed a log partition coefficient (logP) of 0.72.
As for `COc1ccc2c(c1)NC(CCCC(=O)O)=NS2(=O)=O`, the logP is 0.12.
In the case of `O=C(O)CSC1=NS(=O)(=O)c2cc(Br)ccc2N1` it was 0.92; in that of `O=C(O)CCC1=NS(=O)(=O)c2cc(Br)ccc2N1`, 0.93.
`Cc1ccc2c(c1)NC(CCC(=O)O)=NS2(=O)=O` gave a lipophilicity (logP) of 0.16.
Next, `O=C(O)CSC1=NS(=O)(=O)c2ccc(C(F)(F)F)cc2N1`: 1.62; `O=C(O)CCCC1=NS(=O)(=O)c2cc(Br)ccc2N1`: 1.02.
In turn, `O=C(O)CSC1=NS(=O)(=O)c2ccccc2N1` returned a logP of 0.18.
On to `COc1ccc2c(c1)NC(SCCC(=O)O)=NS2(=O)=O`, for which the logP came out at 0.96.
The compound `Cc1ccc2c(c1)NC(CCCC(=O)O)=NS2(=O)=O` had a logP of 0.33.
`O=C(O)CCCC1=NS(=O)(=O)c2cc(Br)cc(Br)c2N1` showed a logP of 1.51.
`O=C(O)CCCC1=NS(=O)(=O)c2cc(Cl)c(Cl)cc2N1`: the logP is 1.8.
Turning to `O=C(O)CSC1=NS(=O)(=O)c2ccc(Cl)c(Cl)c2N1`, the log partition coefficient (logP) came out at 1.1.
In the case of `O=C(O)CCSC1=NS(=O)(=O)c2ccccc2N1` it was 0.66.
In the case of `O=C(O)CCC1=NS(=O)(=O)c2cc(Cl)ccc2N1`, the logP amounted to 0.69.
Regarding `O=C(O)CCSC1=NS(=O)(=O)c2cc(Br)ccc2N1`, the logP was 1.77.
Turning to `O=C(O)CCCC1=NS(=O)(=O)c2ccc(Cl)cc2N1`, the logP came to 0.83.
In turn, `Cc1ccc2c(c1)NC(SCCC(=O)O)=NS2(=O)=O` displayed a logP of 1.16.
In the case of `O=C(O)CCCC1=NS(=O)(=O)c2cc(Cl)cc(Cl)c2N1` it was 1.22; in that of `O=C(O)CCCC1=NS(=O)(=O)c2ccc(C(F)(F)F)cc2N1`, 1.24.
Take `O=C(O)CCC1=NS(=O)(=O)c2ccccc2N1`: the logP is -0.18.
Compound `COc1ccc2c(c1)NC(CCC(=O)O)=NS2(=O)=O` registered a logP of 0.18.
The compound `O=C(O)CCSC1=NS(=O)(=O)c2cc(Br)cc(Br)c2N1` displayed a log partition coefficient (logP) of 2.04.
For the compound `O=C(O)CCSC1=NS(=O)(=O)c2ccc(Cl)cc2N1`, the logP stood at 1.6.
Compound `O=C(O)CCC1=NS(=O)(=O)c2cc(Cl)c(Cl)cc2N1` returned a logP of 1.5.
The compound `O=C(O)CCSC1=NS(=O)(=O)c2ccc(C(F)(F)F)cc2N1` yielded a logP of 1.96.
Compound `O=C(O)CCC1=NS(=O)(=O)c2cc(Br)cc(Br)c2N1` registered a logP of 1.35.
The compound `O=C(O)CCC1=NS(=O)(=O)c2cc(Cl)cc(Cl)c2N1` had a logP of 1.04.
`O=C(O)CCC1=NS(=O)(=O)c2ccc(C(F)(F)F)cc2N1` gave a logP of 1.3.
In the case of `O=C(O)CSC1=NS(=O)(=O)c2cc(Cl)ccc2N1` it was 0.72; in that of `O=C(O)CCCC1=NS(=O)(=O)c2cc(Cl)ccc2N1`, 0.83; in that of `O=C(O)CCSC1=NS(=O)(=O)c2cc(Cl)c(Cl)cc2N1`, 1.81.
The compound `Cc1ccc2c(c1)NC(SCC(=O)O)=NS2(=O)=O` gave a logP of 0.7.
In the case of `O=C(O)CCSC1=NS(=O)(=O)c2cc(Cl)cc(Cl)c2N1` it was 1.79; in that of `O=C(O)CSC1=NS(=O)(=O)c2cc(Br)cc(Br)c2N1`, 1.16.
Next, `O=C(O)CSC1=NS(=O)(=O)c2cc(Cl)cc(Cl)c2N1`: 1.09; `COc1ccc2c(c1)NC(SCC(=O)O)=NS2(=O)=O`: 0.37.
